According to patent publication US7649020B2, “Modafinil polymorphic forms” (Cephalon France, priority 2002, dated 2010):
Read-outs that look alike come from different tables or passages of the source.

How the values were obtained:
[1] = Relative stability of polymorphic forms; assay type: physicochemical; settings: 20° C. / room temperature
Description: Modafinil form I was identified as the thermodynamic form (at room temperature). Form I is obtained via crystallization, preferably under atmospheric pressure, at room temperature.

[2] = Comparative bioavailability study in dogs, plasma levels of modafinil after a single oral dose; assay type: in vivo, dog
Method: A comparative bioavailability study was carried out in dogs to determine the pharmacokinetic profile of the new polymorphs form IV and form V of modafinil. The study was aimed to compare plasma levels of polymorphs form IV and form V versus the reference form I. Six male beagle dogs were randomly assigned to three groups according to a (3×3) Latin-square design. Each group was administered a single oral 30 mg/kg body weight dose of either form IV or form V or the reference form I and two successive administrations were separated by a one-week wash-out period according to the protocol design reported table 1.
Dogs were fasted overnight prior dosing and food was returned to them four hours after dosing. Blood samples were collected after each dose by venepuncture at predose (within one hour of dosing) and at 0.5, 1, 1.5, 2, 2.5, 3, 4, 5.5, 7, 9 and 24 hours post-dose. Blood samples were collected on heparinized test tubes and immediately centrifuged at 3,000 rpm. Then plasma was drawn off and stored frozen (−20° C.) until analyzed. Plasma concentrations of modafinil were determined by validated high-pressure liquid chromatography according to the method of Moachon G. et al. (J. Chromatog. B 1994; 654: 91). Pharmacokinetic parameters were determined using noncompartimental analysis.

[3] = Table 3, dogs, single oral 30 mg/kg, mean ± SEM, 30 mg/kg
[4] = Table 2, male beagle dogs, single oral 30 mg/kg, mean ± SEM, 30 mg/kg

## NC(=O)C[S+]([O-])C(c1ccccc1)c1ccccc1 (stereo not shown) [modafinil form II, 2-(benzhydrylsulfinyl) acetamide]
[1]
  stability of the polymorphic form: unstable

## NC(=O)C[S+]([O-])C(c1ccccc1)c1ccccc1 (racemic) [Form V, 2-(benzhydrylsulfinyl) acetamide]
[2]; [3]
  C1 h (plasma level at 1 hour post-dose): 12.41 ± 2.07 µg/mL
  C1.5 h (plasma level at 1.5 hours post-dose): 15.31 ± 2.06 µg/mL
  C2 h (plasma level at 2 hours post-dose): 16.56 ± 2.48 µg/mL
  C2.5 h (plasma level at 2.5 hours post-dose): 16.37 ± 2.38 µg/mL
  Cmax: 18720 ± 2090 ng/mL
[2]; Table 3, dogs, single oral 30 mg/kg, mean, 30 mg/kg
  Tmax (time to reach peak plasma level of modafinil): 1.67 h
[2]; Table 3, male beagle dogs, single oral 30 mg/kg, mean ± SEM, 30 mg/kg
  MRT (mean residence time): 6.11 ± 0.36 h
[2]; dogs, equivalent oral dose 30 mg/kg
  reduction in time needed to reach the concentration Cmax versus reference form I: ~50%
[2]; dogs, oral 30 mg/kg, data of Table 3
  mean Tmax value relative to that of reference polymorph I: about 50%

## NC(=O)C[S+]([O-])C(c1ccccc1)c1ccccc1 (racemic) [Form IV, 2-(benzhydrylsulfinyl) acetamide]
[2]; [4]
  C4 h (plasma level measured at 4 hours post-dose): 21.23 ± 1.88 µg/mL
  Cmax (maximum plasma level of modafinil): 24.98 ± 1.12 µg/mL
[2]; Table 2, male beagle dogs, single oral 30 mg/kg, trapezoidal rule 0 to 24 hours post-dose, mean ± SEM, 30 mg/kg
  AUC0-24 h: 200.69 ± 18.09 µg·h/mL
[2]; dogs, equivalent dose 30 mg/kg by oral route
  systemic exposure (Cmax and AUC0-24h) compared with form I: substantially higher

## NC(=O)C[S+]([O-])C(c1ccccc1)c1ccccc1 (racemic) [Form I, 2-(benzhydrylsulfinyl) acetamide, reference compound]
[2]; male, beagle, dog, plasma, po, 30 mg/kg, Table 2, male beagle dogs, single oral 30 mg/kg, mean ± SEM, read-out: C4 h (plasma level measured at 4 hours post-dose)
  concentration at 4 h: 15400 ± 2560 ng/mL
[2]; male, beagle, dog, plasma, po, 30 mg/kg, Table 2, male beagle dogs, single oral 30 mg/kg, mean ± SEM, read-out: Cmax (maximum plasma level of modafinil)
  Cmax: 18600 ± 2300 ng/mL
[2]; male, beagle, dog, plasma, po, 30 mg/kg, Table 2, male beagle dogs, single oral 30 mg/kg, trapezoidal rule 0 to 24 hours post-dose, mean ± SEM, read-out: AUC0-24 h
  AUC(0-t): 165 ± 23.7 µg·h/mL
[2]; male, beagle, dog, plasma, po, 30 mg/kg, Table 3, dogs, single oral 30 mg/kg, mean ± SEM, read-out: C1 h (plasma level at 1 hour post-dose)
  concentration at 1 h: 8810 ± 2450 ng/mL
[2]; male, beagle, dog, plasma, po, 30 mg/kg, Table 3, dogs, single oral 30 mg/kg, mean ± SEM, read-out: C1.5 h (plasma level at 1.5 hours post-dose)
  concentration at 1.5 h: 12700 ± 2390 ng/mL
[2]; male, beagle, dog, plasma, po, 30 mg/kg, Table 3, dogs, single oral 30 mg/kg, mean ± SEM, read-out: C2 h (plasma level at 2 hours post-dose)
  concentration at 2 h: 14200 ± 2230 ng/mL
[2]; male, beagle, dog, plasma, po, 30 mg/kg, Table 3, dogs, single oral 30 mg/kg, mean ± SEM, read-out: C2.5 h (plasma level at 2.5 hours post-dose)
  concentration at 2.5 h: 14200 ± 1950 ng/mL
[2]; male, beagle, dog, plasma, po, 30 mg/kg, Table 3, dogs, single oral 30 mg/kg, mean ± SEM, read-out: Cmax
  Cmax: 18600 ± 2300 ng/mL
[2]; male, beagle, dog, plasma, po, 30 mg/kg, Table 3, dogs, single oral 30 mg/kg, mean, read-out: Tmax (time to reach peak plasma level of modafinil)
  Tmax: 3 h
[2]; male, beagle, dog, plasma, po, 30 mg/kg, Table 3, male beagle dogs, single oral 30 mg/kg, mean ± SEM, read-out: MRT (mean residence time)
  MRT: 6.91 ± 0.53 h
[1]
  stability of the polymorphic form: most stable form
